Earlier results as cited in patent publication US20100221326A1, “PHARMACEUTICAL COMPOSITIONS FOR ORAL USE FOR TREATING PATIENTS AFFECTED BY OBESITY” (MADER S.R.L., priority 2007, published 2010).

Details: raw material

In the case of `CCCCCCCCCCC[C@@H](C[C@@H]1OC(=O)[C@H]1CCCCCC)OC(=O)[C@H](CC(C)C)NC=O` [Orlistat], the “degradation of the active principle” value (25° C., 65% RH, after 7 days' storage) is given as 15% and the degradation (40° C., RH 75%) is given as “greater than 40%”.
